Measured values published in the supplement of paper PMC10307832.

Columns and labels:
Experiment in all cases: relative viability (nuclei count vs DMSO), 5 days (fraction); higher = more cells survive
Selisistat = compound: C1CC(C2=C(C1)C3=C(N2)C=CC(=C3)Cl)C(=O)N [Selisistat]
Procedure, shortened: (§1)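 Five library-drug doses, separated by factors of √10, were pinned into 1536-well plates holding lung cancer cell lines after an overnight stay at 37 °C. Cells were fixed, permeabilised and Hoechst-stained in one step after 5 days without medium change, then imaged at 4×. Viability compares treated-well with vehicle-well nuclei, counted in MetaXpress, as a median across plates. Passing plates had control CV below 25% and at least one doubling.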

Serdemetan = compound: c1ccc2c(CCNc3ccc(Nc4ccncc4)cc3)c[nH]c2c1 [Serdemetan]
Procedure, shortened: as §1

Selisistat + Navitoclax = compound: C1CC(C2=C(C1)C3=C(N2)C=CC(=C3)Cl)C(=O)N [Selisistat] + CC1(C)CCC(c2ccc(Cl)cc2)=C(CN2CCN(c3ccc(C(=O)NS(=O)(=O)c4ccc(N[C@H](CCN5CCOCC5)CSc5ccccc5)c(S(=O)(=O)C(F)(F)F)c4)cc3)CC2)C1 [Navitoclax] (partner 0.5 µM)
Procedure, shortened: (§2)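 Medians of duplicate plates are given as relative viability. That measure is the nuclei count in treated wells divided by the count in vehicle wells. Counts were taken on 4× images of lung cancer cell lines in 1536-well plates, 5 days after pin-tool dosing the day after seeding with one drug alone or a fixed anchor-drug dose plus five library-drug doses (not always all listed) in √10 steps.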

Selisistat + Foretinib = compound: C1CC(C2=C(C1)C3=C(N2)C=CC(=C3)Cl)C(=O)N [Selisistat] + COc1cc2c(Oc3ccc(NC(=O)C4(C(=O)Nc5ccc(F)cc5)CC4)cc3F)ccnc2cc1OCCCN1CCOCC1 [Foretinib] (partner 0.25 µM)
Procedure, shortened: as §2

Row | Cell Line | relative viability (Selisistat; 0.4 µM) | relative viability (Selisistat; 1.265 µM) | relative viability (Selisistat; 4 µM) | relative viability (Selisistat; 12.65 µM) | relative viability (Selisistat; 40 µM) | relative viability (Serdemetan; 0.04 µM) | relative viability (Serdemetan; 0.1265 µM) | relative viability (Serdemetan; 0.4 µM) | relative viability (Serdemetan; 1.265 µM) | relative viability (Serdemetan; 4 µM) | relative viability (Selisistat + Navitoclax; first compound 0.4 µM) | relative viability (Selisistat + Navitoclax; first compound 1.265 µM) | relative viability (Selisistat + Navitoclax; first compound 4 µM) | relative viability (Selisistat + Navitoclax; first compound 12.65 µM) | relative viability (Selisistat + Navitoclax; first compound 40 µM) | relative viability (Selisistat + Foretinib; first compound 0.4 µM) | relative viability (Selisistat + Foretinib; first compound 1.265 µM) | relative viability (Selisistat + Foretinib; first compound 4 µM) | relative viability (Selisistat + Foretinib; first compound 12.65 µM) | relative viability (Selisistat + Foretinib; first compound 40 µM)
1 | PC-3 [JPC-3] | 1.14 | 1.04 | 0.85 | 1.07 | 0.948 | 1.04 | 0.961 | 0.702 | 0.98 | 1.06 | 0.753 | 0.741 | 0.746 | 0.696 | 0.776 | 1.07 | 1.04 | 1.01 | 1.07 | 1.06
2 | BEN | 1.01 | 0.967 | 0.738 | 0.878 | 0.9 | 0.996 | 0.924 | 1.02 | 0.686 | 0.882 | 0.0717 | 0.0697 | 0.0619 | 0.0731 | 0.0771 | 0.575 | 0.553 | 0.373 | 0.558 | 0.468
3 | NCI-H1666 | 1.06 | 0.933 | 0.877 | 1.04 | 0.966 | 0.985 | 0.946 | 0.934 | 0.634 | 0.781 | 1.04 | 1.04 | 0.911 | 0.77 | 0.916 | 0.993 | 0.993 | 0.927 | 0.943 | 0.858
4 | LC-2-ad | 1.05 | 0.762 | 0.794 | 0.926 | 1.01 | 1 | 0.962 | 0.911 | 0.962 | 0.872 | 0.514 | 0.475 | 0.507 | 0.485 | 0.561 | 1.14 |  | 0.706 | 0.918 | 0.889
5 | SK-LU-1 | 1.08 | 1.07 | 1.08 | 1.08 | 1.13 | 1.02 | 0.999 | 1.1 | 0.802 | 0.828 | 1.08 | 0.897 | 1.05 | 0.837 | 0.893 | 0.883 | 0.811 | 0.865 | 0.813 | 0.825
6 | ChaGo-K-1 | 1.02 | 0.942 | 0.8 | 0.866 | 0.97 | 0.964 | 0.95 | 0.873 | 0.624 | 0.529 | 0.959 | 1.1 |  | 0.881 | 0.901 | 0.927 | 0.896 | 0.922 | 0.857 | 0.843
7 | COR-L 105 | 0.904 | 0.895 | 0.675 | 0.855 | 0.877 | 0.971 | 0.875 | 0.734 | 0.815 | 0.89 | 0.635 | 0.763 | 0.671 | 0.815 | 0.823 | 0.984 | 1.15 |  | 1.1 | 1.14
8 | NCI-H1975 | 0.952 | 0.839 | 0.763 | 0.825 | 0.836 | 0.934 | 0.978 | 0.919 | 0.937 | 0.993 | 1.08 | 0.913 | 1.05 | 0.982 | 0.976 | 0.983 | 0.84 | 0.896 | 0.815 | 0.706
9 | Calu-6 | 1.03 | 0.965 | 0.99 | 0.976 | 1 | 1 | 1.02 | 1.02 | 0.875 | 0.677 | 0.832 | 0.779 | 0.84 | 0.82 | 0.789 | 0.932 | 0.812 | 0.814 | 0.853 | 0.84
10 | NCI-H1993 | 0.911 | 0.898 |  | 1.01 | 1.04 | 0.977 | 0.995 | 0.699 | 0.831 | 0.89 | 0.969 | 0.891 |  | 1.03 | 0.986 | 0.745 | 0.798 | 0.696 | 0.949 | 0.707
11 | RERF-LC-KJ | 1.06 | 0.969 | 0.927 | 0.836 | 0.87 | 0.99 | 0.948 | 0.93 | 0.942 | 0.939 | 0.812 | 1.1 | 0.84 | 0.702 | 0.627 | 0.902 | 0.783 | 0.84 | 0.829 | 0.803
12 | NCI-H23 | 0.989 | 0.941 |  | 0.906 | 1.08 | 0.972 | 1.17 | 1.11 | 0.817 | 1.04 | 0.853 | 0.936 |  | 0.943 | 0.876 | 0.579 | 0.779 | 0.805 | 0.935 | 0.565
13 | HCC-366 | 0.997 | 0.957 | 0.894 | 1.01 | 1 | 1 | 0.989 | 0.978 | 0.121 | 0.101 | 1.15 | 0.965 | 0.89 | 0.97 | 1.08 | 0.837 | 0.892 | 0.755 | 0.862 | 0.957
14 | EMC-BAC-2 | 0.978 | 0.996 | 0.595 | 0.688 | 0.561 | 0.962 | 1.02 | 0.971 | 0.849 | 0.967 | 1.13 | 1.09 | 1.07 | 1.15 | 1.2 | 1.03 | 0.97 | 0.962 | 1.11 | 0.842
15 | NCI-H2405 | 1.06 | 0.88 | 0.657 | 0.984 | 0.992 | 0.99 | 1.01 | 0.984 | 0.921 | 0.859 | 0.785 |  |  | 0.804 | 0.793 | 1.06 | 1.09 | 1.07 | 1.06 | 1.02
16 | NCI-H1944 | 1.11 | 0.92 |  | 0.858 | 0.975 | 0.95 | 0.918 | 0.858 | 0.469 | 0.738 | 1.1 | 0.998 |  | 1.04 | 0.927 | 0.948 | 0.854 |  | 0.857 | 0.808
17 | EPLC-272H | 0.966 | 1.03 |  | 0.931 | 1.04 | 1.17 | 1.09 | 0.897 | 0.833 | 0.912 | 1.07 | 1.16 |  | 1.23 | 1.25 | 0.849 | 0.662 |  | 0.566 | 0.631
